Values quoted from earlier work as cited in patent US20210251893A1, “Compositions and Methods for Treating Ocular Diseases” (Ocular Therapeutix, Inc., priority 2020, published 2021).
Blank lines part the entries; values can stand above or below the compound they belong to.

Columns and labels:
FP prostanoid receptor = FP prostanoid receptor (Homo sapiens, UniProt P43088)
Chain of FP prostanoid receptor (P43088 whole entry): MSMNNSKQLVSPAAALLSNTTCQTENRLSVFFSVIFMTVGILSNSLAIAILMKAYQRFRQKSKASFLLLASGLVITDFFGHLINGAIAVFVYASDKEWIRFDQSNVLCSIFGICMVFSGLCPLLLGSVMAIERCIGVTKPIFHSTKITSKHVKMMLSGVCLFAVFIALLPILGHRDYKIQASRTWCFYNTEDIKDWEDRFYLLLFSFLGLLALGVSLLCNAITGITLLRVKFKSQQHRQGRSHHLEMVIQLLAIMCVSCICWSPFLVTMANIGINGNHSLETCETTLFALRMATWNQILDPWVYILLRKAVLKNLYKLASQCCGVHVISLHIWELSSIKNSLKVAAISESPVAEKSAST

Solubility in aqueous solutions: relatively low solubility
SMILES: CC(C)OC(=O)CCC/C=C\C[C@@H]1[C@@H](CC[C@@H](O)CCc2ccccc2)[C@H](O)C[C@@H]1O [Latanoprost]

SMILES: CC(C)OC(=O)CCC/C=C\C[C@@H]1[C@@H](/C=C/[C@@H](O)COc2cccc(C(F)(F)F)c2)[C@H](O)C[C@@H]1O [Travoprost]
Affinity for the prostaglandin FP receptor (FP prostanoid receptor): high affinity

SMILES: O=C(O)CCC/C=C\C[C@@H]1[C@@H](/C=C/[C@@H](O)COc2cccc(C(F)(F)F)c2)[C@H](O)C[C@@H]1O [free acid of travoprost]
Potency and selectivity for the FP prostanoid receptor (FP prostanoid receptor; compared to latanoprost): higher potency and greater selectivity
